Each structure is given as a SMILES string.

Data set [1] concerns the target DNA topoisomerase 2-alpha (Homo sapiens) (UniProt P11388). The experiment in a line: Inhibition of recombinant human topoisomerase 2alpha assessed as decrease in relaxation of supercoiled pUC19 DNA at 100 uM after 30 mins by ethidium bromide staining based agarose gel electrophoresis relative to control.
The target in data set [2] is T1, Albumin (Bos taurus, UniProt P02769). In words: Binding affinity to bovine serum albumin assessed as Stern-Volmer quenching constant by fluorescence spectroscopic analysis. It is filed as ADME. Particulars: cattle, isolated protein.
In data set [3] the target is T1, Albumin. In words: Binding affinity to bovine serum albumin assessed as decrease in protein fluorescence intensity up to 10 uM by fluorescence spectroscopic analysis. It is filed as ADME. On the set-up: scale not given: the % may be the effect or the level left. To be noted: cattle, isolated protein.
In data set [4] the test system is Calf thymus DNA. The experiment in a line: Binding affinity to calf thymus DNA by UV-vis absorption spectral analysis. It is filed as nucleic-acid assay. Particulars: Bos taurus.
Data set [5] concerns Calf thymus DNA. In words: Binding affinity to calf thymus DNA assessed as hypochromic effect up to 10 uM by UV-vis absorption spectral analysis. Format: nucleic-acid assay. To be noted: Bos taurus.
The subject of data set [6] is Calf thymus DNA. In words: Binding affinity to calf thymus DNA assessed as hyperchromic effect up to 10 uM by UV-vis absorption spectral analysis. It is filed as nucleic-acid assay. To be noted: Bos taurus.

T1 sequence (P02769 whole entry): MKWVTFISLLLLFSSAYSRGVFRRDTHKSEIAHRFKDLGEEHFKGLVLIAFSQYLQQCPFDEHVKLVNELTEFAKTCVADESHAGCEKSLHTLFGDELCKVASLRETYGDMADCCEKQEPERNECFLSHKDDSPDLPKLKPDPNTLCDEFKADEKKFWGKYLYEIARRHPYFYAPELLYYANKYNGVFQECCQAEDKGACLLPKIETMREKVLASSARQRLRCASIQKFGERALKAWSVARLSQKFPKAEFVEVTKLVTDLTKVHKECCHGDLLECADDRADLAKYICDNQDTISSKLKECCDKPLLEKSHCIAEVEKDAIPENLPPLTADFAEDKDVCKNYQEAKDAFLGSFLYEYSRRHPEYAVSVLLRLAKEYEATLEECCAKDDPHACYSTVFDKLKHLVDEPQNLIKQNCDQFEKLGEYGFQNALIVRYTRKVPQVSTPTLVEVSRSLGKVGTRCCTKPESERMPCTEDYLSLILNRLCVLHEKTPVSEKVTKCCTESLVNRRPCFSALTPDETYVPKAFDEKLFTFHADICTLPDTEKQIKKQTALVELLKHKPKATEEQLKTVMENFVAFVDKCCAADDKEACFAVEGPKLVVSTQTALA
Chain of DNA topoisomerase 2-alpha (Homo sapiens) (P11388 whole entry): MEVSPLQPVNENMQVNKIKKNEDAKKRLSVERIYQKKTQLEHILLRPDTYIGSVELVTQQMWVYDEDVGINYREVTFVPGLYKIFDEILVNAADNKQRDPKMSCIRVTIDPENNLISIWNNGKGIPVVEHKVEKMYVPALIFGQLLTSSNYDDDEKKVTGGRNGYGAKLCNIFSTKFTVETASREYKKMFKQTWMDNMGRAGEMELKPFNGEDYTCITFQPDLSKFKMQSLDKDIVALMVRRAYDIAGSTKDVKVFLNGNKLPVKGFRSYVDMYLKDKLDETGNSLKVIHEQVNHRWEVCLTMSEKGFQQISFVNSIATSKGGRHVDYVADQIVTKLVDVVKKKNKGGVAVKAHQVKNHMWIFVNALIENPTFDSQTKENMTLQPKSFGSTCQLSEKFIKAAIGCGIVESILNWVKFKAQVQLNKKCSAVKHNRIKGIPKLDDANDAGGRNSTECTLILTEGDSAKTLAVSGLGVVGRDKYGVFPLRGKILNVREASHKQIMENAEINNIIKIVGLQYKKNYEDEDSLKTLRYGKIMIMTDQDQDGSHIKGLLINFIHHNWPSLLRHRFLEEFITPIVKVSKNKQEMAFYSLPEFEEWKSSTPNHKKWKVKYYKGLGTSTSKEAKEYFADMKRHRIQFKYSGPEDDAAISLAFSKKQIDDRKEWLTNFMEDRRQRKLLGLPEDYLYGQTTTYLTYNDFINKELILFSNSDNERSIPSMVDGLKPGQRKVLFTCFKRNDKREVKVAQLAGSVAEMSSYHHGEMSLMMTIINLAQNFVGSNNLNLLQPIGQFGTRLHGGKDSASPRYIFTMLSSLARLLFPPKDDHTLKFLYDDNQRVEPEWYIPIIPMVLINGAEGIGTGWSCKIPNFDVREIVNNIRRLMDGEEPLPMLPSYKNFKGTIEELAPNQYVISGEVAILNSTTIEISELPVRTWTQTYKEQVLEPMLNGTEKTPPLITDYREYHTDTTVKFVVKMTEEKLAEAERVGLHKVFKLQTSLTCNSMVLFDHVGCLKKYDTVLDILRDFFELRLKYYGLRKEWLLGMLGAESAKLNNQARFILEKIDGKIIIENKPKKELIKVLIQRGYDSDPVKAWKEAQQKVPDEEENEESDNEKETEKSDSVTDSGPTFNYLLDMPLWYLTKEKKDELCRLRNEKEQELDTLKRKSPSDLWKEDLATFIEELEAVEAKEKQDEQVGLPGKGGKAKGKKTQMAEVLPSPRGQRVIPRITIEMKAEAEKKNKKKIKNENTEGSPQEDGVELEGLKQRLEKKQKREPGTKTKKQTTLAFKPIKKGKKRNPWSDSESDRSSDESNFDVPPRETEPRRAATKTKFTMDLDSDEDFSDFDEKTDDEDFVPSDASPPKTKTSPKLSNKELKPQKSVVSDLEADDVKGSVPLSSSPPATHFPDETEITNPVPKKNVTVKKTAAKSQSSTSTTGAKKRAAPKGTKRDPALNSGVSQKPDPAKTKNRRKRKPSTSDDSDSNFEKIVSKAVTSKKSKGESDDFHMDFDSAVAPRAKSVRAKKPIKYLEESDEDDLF

As to `COc1ccc(/C=N/N2C(=O)C(C#N)=CC23c2ccccc2Nc2ccccc23)cc1`, the inhibition – broadly, the drop in the measured response relative to a control, in per cent – in data set [1] is 88.1%.
Take `COc1ccc(Br)cc1/C=N/N1C(=O)C(C#N)=CC12c1ccccc1Nc1ccccc12`: the KSV on Albumin [2] is recorded as 1.9 ×10⁴ /M. In addition, the Activity at Albumin [3] was 42.53%; in the data set with Calf thymus DNA [5], 100%. In the data set on Calf thymus DNA [4], the Kb is 6.7 ×10⁵ /M. The inhibition in data set [1] came to 1.64%.
The matching figures for `CCOc1cc(/C=N/N2C(=O)C(C#N)=CC23c2ccccc2Nc2ccccc23)ccc1O`: 2.3 ×10⁴ /M, 58.57%, 14.4%, 2.6 ×10⁵ /M and 20.6%.
For `N#CC1=CC2(c3ccccc3Nc3ccccc32)N(/N=C/c2ccccc2)C1=O`, the inhibition in data set [1] stood at 9.78%.
As for `N#CC1=CC2(c3ccccc3Nc3ccccc32)N(/N=C/c2ccc([N+](=O)[O-])cc2)C1=O`, the KSV at Albumin [2] is reported as 3.1 ×10⁴ /M. Further, the Activity amounted to 71.74% on Albumin [3] and 13.5% in the data set on Calf thymus DNA [5]. In the data set on Calf thymus DNA [4], this compound gave a Kb of 4.8 ×10⁶ /M. In addition, the inhibition in data set [1] was found to be 43.7%.
As to `N#CC1=CC2(c3ccccc3Nc3ccccc32)N(/N=C/c2c(Cl)cccc2Cl)C1=O`, the KSV at Albumin [2] turned out to be 2.1 ×10⁴ /M. Besides, the figures for the Activity on Albumin [3] and with Calf thymus DNA [5] were 45.77% and 30%, respectively. The compound further returned a Kb in the data set with Calf thymus DNA [4] of 1.6 ×10⁵ /M. In data set [1], the inhibition turned out to be 15.9%.
Take `N#CC1=CC2(c3ccccc3Nc3ccccc32)N(/N=C/c2ccc(Cl)cc2Cl)C1=O`: at Albumin [2], the KSV came to 2 ×10⁴ /M. For the same compound, the Activity at Albumin [3] was 48.01%; in the data set on Calf thymus DNA [6] it was 65.3%. In the data set with Calf thymus DNA [4], this compound registered a Kb of 8.2 ×10⁵ /M. Moreover, the inhibition in data set [1] came out at 61.7%.
For the compound `N#CC1=CC2(c3ccccc3Nc3ccccc32)N(/N=C/c2ccccc2[N+](=O)[O-])C1=O`, the KSV at Albumin [2] was 2.3 ×10⁴ /M. Moreover, the Activity at Albumin [3] turned out to be 51.46%; with Calf thymus DNA [5] it was 8.06%. This compound also came in with a Kb in the data set on Calf thymus DNA [4] of 3.7 ×10⁵ /M. In data set [1], the inhibition worked out at 1.64%.
The matching figures for `N#CC1=CC2(c3ccccc3Nc3ccccc32)N(/N=C/c2ccc(Cl)cc2)C1=O`: 3.4 ×10⁴ /M, 60.3%, 44.3%, 7.6 ×10⁵ /M and 84.3%.
The matching figures for `CN(C)c1ccc(/C=N/N2C(=O)C(C#N)=CC23c2ccccc2Nc2ccccc23)cc1`: 2.7 ×10⁴ /M, 54.95%, 7.14%, 1.1 ×10⁸ /M and 1.64%.
On to `N#CC1=CC2(c3ccccc3Nc3ccccc32)N(/N=C/c2ccc(F)cc2)C1=O`, for which the KSV on Albumin [2] is on record as 2.3 ×10⁴ /M. For the same compound, the Activity stood at 55.11% at Albumin [3] and 45.8% in the data set on Calf thymus DNA [6]. The same compound had a Kb with Calf thymus DNA [4] of 1.5 ×10⁵ /M. Besides, in data set [1], the inhibition is 70.7%.

Values taken from ChEMBL document CHEMBL4261647, “Synthesis, DNA and protein interactions and human topoisomerase inhibition of novel Spiroacridine derivatives” (Bioorg Med Chem, 2018).
